Measurements from paper PMC5007486, “Thermodynamic instability of viral proteins is a pathogen-associated molecular pattern targeted by human defensins” (Scientific Reports, 2016).
Where no end group is shown, it is not given here.

Key:
HIV-1 CA [1] = details: 10 μM CA, 3-fold molar excess HNP-1, chymotrypsin (1:100 w/w) or thermolysin (1:200 w/w), 37 °C, 20 mM HEPES pH 7.5, 100 mM NaCl, 5 mM CaCl2, SDS-PAGE
Method: (§3) Briefly, viral proteins (5–10 μM) were mixed with 3-fold molar excess of HNP-1 (i.e. 15–30 μM) in a 20 mM HEPES buffer (pH 7.5) supplemented with 100 mM NaCl and 5 mM CaCl2. […] The reactions were stopped by adding reducing sample buffer (50 mM Tris, pH 6.8, 10% glycerol, 2% sodium dodecyl sulfate (SDS), 100 mM β-mercaptoethanol, 0.1% bromophenol blue) supplemented with 2 mM phenylmethylsulfonyl fluoride (PMSF) and 10 mM ethylenediaminetetraacetic acid (EDTA) and boiling for 5 min. The protein samples were resolved on SDS-PAGE.

TEV Protease [2] = format: binding, tobacco etch virus (TEV); details: DSF
Text: (§1) Differential scanning fluorimetry (DSF)

HIV-1 IN [3] = details: HTRF; IN 400 nM; defensin 1–10 μM, 30 min room temperature; strand transfer three hours 37 °C, pH 7.5
Method: Homogenous time-resolved fluorescence (HTRF)-based integration activity assay
To test the HIV-1 integrase (IN) activity in the presence and absence of defensins, previously developed HTRF technique[41][42] was used with some modifications. […] Following the incubation with the defensins, a 5′-Cy5-labelled 21-mer viral donor DNA (200 nM) and 3′-biotinylated target DNA (20 nM) were added to the reaction. […] 0.5 M NaCl (final concentration in the development solution) allows dissociating of all DNA from IN to prevent FRET signal from non-covalently associated donor and target DNA. Following an overnight incubation at 4 °C, the HTRF signal was recorded with an EnSpire multimode plate reader (PerkinElmer).

gp41 [4] = details: cited from earlier work
PFV IN [5] = tested on: PFV IN; design: species or system prototype foamy virus (PFV); details: 5 μM PFV IN, 3-fold molar excess HNP-1, chymotrypsin (1:100 w/w) or thermolysin (1:200 w/w), 37 °C, 20 mM HEPES pH 7.5, 100 mM NaCl, 5 mM CaCl2, SDS-PAGE
Method: Limited proteolysis was conducted as described previously. […] The protein samples were resolved on SDS-PAGE.

gp41 [6] = details: cited from earlier work; remark: listed apart in the source
TEV Protease [7] = tested on: TEV Protease; design: species or system tobacco etch virus (TEV); details: 10 μM protein; HNP-1 20 and 50 μM or RC-101 30 and 60 μM; 30 min, […] °C, pH 7.5, 100 mM NaCl; 280,000 g, SDS-PAGE
Method: Precipitation of HIV-1 MA, HIV-1 CA, and TEV protease was assessed by differential ultracentrifugation. […] All samples were centrifuged using TLA-100 rotor in Optima TL-100 ultracentrifuge (Beckman Coulter) at 280,000 g for 30 min at 4 °C. The supernatant (soluble) and pellet (precipitated) fractions were collected, supplemented with 1/3rd of the volume of 4x reducing sample buffer (200 mM Tris, pH 6.8, 40% glycerol, 8% SDS, 400 mM β-mercaptoethanol, 0.4% bromophenol blue), pellets resuspended, and samples resolved on SDS-PAGE.

HSV = tested on: HSV; design: method as in PMID 17142766; details: cited from earlier work
HIV-1 MA = details: 10 μM MA, 3-fold molar excess HNP-1, chymotrypsin (1:100 w/w) or thermolysin (1:200 w/w), 37 °C, 20 mM HEPES pH 7.5, 100 mM NaCl, 5 mM CaCl2, SDS-PAGE
Method: as §3

HIV-1 = details: cited from earlier work
TEV Protease [8] = format: biochemical, tobacco etch virus (TEV); details: disulfide bonds reduced with 10 mM TCEP, one hour pre-incubation at room temperature
Method: TEV protease activity assay
The reactions were stopped by boiling in reducing sample buffer; proteolytic products were resolved on SDS-PAGE. For reducing condition experiments, the reaction buffer was supplemented with 10 mM tris(2-carboxyethyl)phosphine (TCEP) and the defensins were pre-incubated with 10 mM TCEP for one hour at room temperature before co-incubation with the TEV protease. Note, the ammonium salt of TCEP (Sigma #646547) used in this study has neutral pH (7.0). Care was taken to verify that the final pH of the working solutions was not changed after the addition of TCEP.

[9] = tested on: Gram-negative and Gram-positive bacteria; details: reduction of disulfide bonds; cited from earlier work
Text: (§2) Three characteristic disulfide bonds stabilize the defensins’ structure and are essential for some, but not all functions of the peptides. […] This is likely because the preserved defensin structure is required in the later case, when the cell wall synthesis machinery is targeted, but not in the former case, when defensins directly affect membranes of Gram-negative bacteria. In contrast, reduction of disulfi ...

chemokine receptor CCR6 = tested on: chemokine receptor CCR6; design: method as in PMID 12840147; details: binding and activation of CCR6; cited from earlier work
[10] = cited from earlier work
Text: as §2

PFV IN [11] = format: binding, prototype foamy virus (PFV); details: DSF, 5-fold molar excess of cyclotide
Text: as §1

HIV-1 CA [12] = details: DSF, 5-fold molar excess of cyclotide
Method: (§4) Viral protein samples (5–20 μM) in a 20 mM 4-(2-hydroxyethyl)-1-piperazineethanesulfonic acid (HEPES) buffer (pH 7.5) supplemented with 150 mM NaCl and 1x SYPRO Orange dye (Invitrogen) were subjected to temperature denaturation in the absence or presence of defensins. […] Temperature melting profiles were acquired with a CFX96 Touch Real-Time PCR Detection System (Bio-Rad). Melting temperatures for proteins alone and in the presence of different defensins were calculated as described previously[76].

HIV-1 Gag-Δp6 = details: DSF, 5-fold molar excess of cyclotide
Method: as §4

HIV-1 IN [13] = details: DSF, 5-fold molar excess of cyclotide
Method: as §4

[14] = tested on: Actin Crosslinking Domain (ACD); format: binding, Vibrio cholerae; details: 5-molar excess of peptide to the toxin
dengue virus DENV-2 = tested on: dengue virus DENV-2; design: method as in PMID 23171075; details: activity greatly increased with elevated temperature; cited from earlier work
serine protease = tested on: serine protease; design: method as in PMID 23171075; details: greatly increased with elevated temperature; cited from earlier work
[15] = tested on: gp41-derived peptide mixture of N36/C34; design: method as in PMID 16648135; details: cited from earlier work
Ad5.F35 capsid = details: CryoEM; with signs of local disorganization of hexon, penton base, fiber; cited from earlier work
Text: It is likely that the potent destabilizing effects imposed by defensins are pertinent at numerous physiological occasions and particularly upon dynamic structural transitions in the course of capsid assembly, uncoating, and membrane fusion. Yet, we are far from proposing that the destabilization of purified viral proteins by defensins observed in vitro accurately represents the complexity of physiological conditions including, but not limited to, interactions of viral proteins with each other, viral nucleic acids, and host proteins. Thus, in apparent contradiction with our resu ...

HNP-1: human neutrophil α-defensin peptide HNP-1, prepared by solid-phase peptide synthesis
Detectable amounts of cleaved products of HIV-1 CA (HIV-1 CA [1]): drastic reduction in the detectable amounts of cleaved products
Ability to promote unfolding of TEV protease, reducing conditions (TEV Protease [2]; disulfide bonds reduced with 10 mM TCEP): complete loss
Strand transfer activity of HIV-1 IN (HIV-1 IN [3]): inhibited the strand transfer activity of IN
Refolding of gp41 into 6-helix bundle (gp41 [4]): impaired refolding of gp41 into the 6-helix bundle structure triggering their aggregation
Detectable amounts of cleaved products of PFV IN (PFV IN [5]): drastic reduction in the detectable amounts of cleaved products
Refolding lifetime of gp41 intermediates in pre-hairpin conformation (gp41 [6]): prolong refolding lifetime of gp41 intermediates in pre-hairpin conformation
Precipitation of TEV protease (TEV Protease [7]): dose-dependent precipitation
HSV infection (HSV): inhibit HIV-1 and HSV infections at multiple steps
Detectable amounts of cleaved products of HIV-1 MA (HIV-1 MA): drastic reduction in the detectable amounts of cleaved products
HIV-1 infection (HIV-1): inhibit HIV-1 and HSV infections at multiple steps
Ability to inhibit proteolytic activity of TEV protease, reducing conditions (TEV Protease [8]): complete loss

hBD-1: human β-defensin hBD-1, prepared by solid-phase peptide synthesis (DHYNCVSSGGQCLYSACPIFTKIQGTCYRGKAKCCK; ends and bridges not checked; cysteine pairing not given here; UniProt P60022 33-68, looked up)
Effect on thermal melting of TEV protease, reducing conditions (TEV Protease [2]; reduced β-defensin, 10 mM TCEP): had no effect on thermal melting
Effect of disulfide reduction on antimicrobial activity [9]: activates hBD-1 antimicrobial activity against both Gram-negative and Gram-positive bacteria

hBD-3: human beta-defensin 3 (GIINTLQKYYCRVRGGRCAVLSCLPKEEQIGKCSTRGRKCCRRKK; ends and bridges not checked; cysteine pairing not given here; UniProt P81534 23-67, looked up)
Need of disulfide bonds for chemotactic activity (chemokine receptor CCR6): required for its chemotactic activity
Need of disulfide bonds for antimicrobial activity [10]: dispensable for its antimicrobial activity

kalata B1 [kB1]
Ability to potentiate unfolding of TEV protease (TEV Protease [2]; 5-fold molar excess of cyclotide): none of the four cyclotides used in this study (cyO2, cyO19, kB1, and kB7) demonstrated an ability to potentiate unfolding
Ability to potentiate unfolding of PFV IN (PFV IN [11]): none of the four cyclotides used in this study (cyO2, cyO19, kB1, and kB7) demonstrated an ability to potentiate unfolding
Ability to potentiate unfolding of HIV-1 CA (HIV-1 CA [12]): none of the four cyclotides used in this study (cyO2, cyO19, kB1, and kB7) demonstrated an ability to potentiate unfolding
Ability to potentiate unfolding of HIV-1 Gag-Δp6 (HIV-1 Gag-Δp6): none of the four cyclotides used in this study (cyO2, cyO19, kB1, and kB7) demonstrated an ability to potentiate unfolding
Ability to potentiate unfolding of HIV-1 IN (HIV-1 IN [13]): none of the four cyclotides used in this study (cyO2, cyO19, kB1, and kB7) demonstrated an ability to potentiate unfolding
Unfolding / DSF thermal denaturation profile of ACD toxin [14]: none of the four cyclotides used in this study (cyO2, cyO19, kB1, and kB7) demonstrated an ability to potentiate unfolding

retrocyclin-1 [RC-1]
Dengue virus DENV-2 replication (dengue virus DENV-2): inhibits dengue virus DENV-2 replication
Refolding of gp41 into 6-helix bundle (gp41 [4]): impaired refolding of gp41 into the 6-helix bundle structure triggering their aggregation
DENV-2 serine protease activity (serine protease): interfering with the activity of its serine protease
Circular dichroism spectrum of N36/C34 [15]: transformed into a random coil-like spectrum

B1: HD-5: human enteric α-defensin HD-5, prepared by solid-phase peptide synthesis (peptide, UniProt Q01523 20-94, looked up)
Defensin alpha 5: ESLQERADEATTQKQSGEDNQDLAISFAGNGLSALRTSGSQARATCYCRTGRCATRESLSGVCEISGRLYRLCCR
modifications: Defensin-5
notes: human enteric α-defensin HD-5, prepared by solid-phase peptide synthesis
Stability of Ad5.F35 capsid (Ad5.F35 capsid): overall stabilization of Ad5.F35 capsid
